According to ChEMBL document CHEMBL3132861 (Medchemcomm, 2013):

What was measured:
[1] = Antiproliferative activity against human MDA-MB-435 cells by SRB assay
[2] = Inhibition of microtubule depolymerization in rat A10 cells after 18 hrs by immunofluorescence assay; type: cell-based
A10 = test: Inhibition of microtubule depolymerization in rat A10 cells at 75 uM after 18 hrs by immunofluorescence assay; type: cell-based

| IC50 [1] [µM] | EC50 [2] [µM] | pEC50 [2] | Compound | inhibition (A10) [%] |
| --- | --- | --- | --- | --- |
| 1.98 | 17.8 | 4.75 | CCOC(=O)c1[nH]c(Br)c(-c2c[nH]c3ccccc23)c1Br |  |
| 2.24 | > 75 | 3.82 | CCOC(=O)c1[nH]c(Br)c(-c2ccc(C)cc2)c1Br |  |
|  | 29.7 | 4.53 | CCOC(=O)c1[nH]c(Br)c(-c2ccc3c(c2)OCO3)c1Br |  |
|  | 14.1 | 4.85 | CCOC(=O)c1[nH]c(Br)c(-c2ccc(OC)c(F)c2)c1Br |  |
| 12.9 | > 75 | 3.82 | CCOC(=O)c1[nH]c(Br)c(-c2cc(OC)c(OC)c(OC)c2)c1Br |  |
|  | 18.5 | 4.73 | CCOC(=O)c1[nH]c(Br)c(-c2ccc(SC)cc2)c1Br |  |
|  | > 75 | 3.82 | CCOC(=O)c1[nH]c(Br)c(-c2ccc(Cl)cc2)c1Br |  |
|  | 94 | 4.03 | CCOC(=O)c1[nH]c(Br)c(-c2ccc(Br)cc2)c1Br | 40 |
| 3.24 | 7 | 5.15 | CCOC(=O)c1[nH]c(Br)c(-c2cccc3ccccc23)c1Br |  |
|  | 7 | 5.15 | CCOC(=O)c1[nH]c(Br)c(-c2ccc(OC)cc2)c1Br |  |
| 2.64 | 14 | 4.85 | CCOC(=O)c1[nH]c(Br)c(-c2cc(OC)c(OC)cc2Br)c1Br |  |
|  | 9.9 | 5 | CCOC(=O)c1[nH]c(Br)c(-c2ccc(Cl)c(Cl)c2)c1Br |  |
| 10.3 | > 75 | 3.82 | CCOC(=O)c1[nH]c(Br)c(-c2ccccc2)c1Br |  |
| 1.99 | > 75 | 3.82 | CCOC(=O)c1[nH]c(Br)c(-c2ccc3cc(OCC)ccc3c2)c1Br |  |
|  | 27.1 | 4.57 | CCOC(=O)c1[nH]c(Br)c(-c2ccc(OC(F)(F)F)cc2)c1Br |  |
| 4.36 | 20.9 | 4.68 | CCOC(=O)c1[nH]c(Br)c(-c2ccc3c(c2)OCCO3)c1Br |  |
|  | 2.4 | 5.62 | CCOC(=O)c1[nH]c(Br)c(-c2cccc(OC)c2)c1Br |  |
